Results as given in PubChem BioAssay (NCI).
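Five concentrations, 48 hours, 96-well plates. Here, GI50 denotes the concentration required for 50% inhibition of growth. TGI is the concentration that stops growth completely.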

Tests used:
Assay in all cases: NCI tumour cell line growth inhibition, 48 h
[1] = test system: 786-0 renal
[2] = test system: A498 renal
[3] = test system: A549 NSCLC
[4] = test system: ACHN renal
[5] = test system: BT-549 breast
[6] = test system: CAKI-1 renal
[7] = test system: CCRF-CEM leukemia
[8] = test system: COLO 205 colon
[9] = test system: DU-145 prostate
[10] = test system: EKVX NSCLC
[11] = test system: HCC-2998 colon
[12] = test system: HCT-116 colon
[13] = test system: HCT-15 colon
[14] = test system: HL-60(TB) leukemia
[15] = test system: HOP-62 NSCLC
[16] = test system: HOP-92 NSCLC
[17] = test system: HS 578T breast
[18] = test system: HT29 colon
[19] = test system: IGROV1 ovarian
[20] = test system: K-562 leukemia
[21] = test system: KM12 colon
[22] = test system: LOX IMVI melanoma
[23] = test system: M14 melanoma
[24] = test system: MALME-3M melanoma
[25] = test system: MCF7 breast
[26] = test system: MDA-MB-231 breast
[27] = test system: MOLT-4 leukemia
[28] = test system: NCI-H226 lung
[29] = test system: NCI-H23 lung
[30] = test system: NCI-H460 lung
[31] = test system: NCI-H522 lung
[32] = test system: NCI/ADR-RES ovarian
[33] = test system: OVCAR-3 ovarian
[34] = test system: OVCAR-4 ovarian
[35] = test system: OVCAR-5 ovarian
[36] = test system: OVCAR-8 ovarian
[37] = test system: PC-3 prostate
[38] = test system: RPMI-8226 leukemia
[39] = test system: RXF 393 renal
[40] = test system: SF-268 CNS
[41] = test system: SF-295 CNS
[42] = test system: SF-539 CNS
[43] = test system: SK-MEL-2 melanoma
[44] = test system: SK-MEL-28 melanoma
[45] = test system: SK-MEL-5 melanoma
[46] = test system: SK-OV-3 ovarian
[47] = test system: SN12C renal
[48] = test system: SNB-19 CNS
[49] = test system: SNB-75 CNS
[50] = test system: SR leukemia
[51] = test system: SW-620 colon
[52] = test system: T-47D breast
[53] = test system: TK-10 renal
[54] = test system: U251 CNS
[55] = test system: UACC-257 melanoma
[56] = test system: UACC-62 melanoma
[57] = test system: UO-31 renal

Cc1ccc(C2=NN(c3ccc(S(C)(=O)=O)cc3)C(=O)CC2)cc1
GI50 [1]: 7.26 µM
TGI [1]: > 100 µM
GI50 [2]: 0.282 µM
TGI [2]: 7.73 µM
GI50 [3]: 0.615 µM
TGI [3]: > 100 µM
GI50 [4]: 8.52 µM
TGI [4]: > 100 µM
GI50 [5]: 0.569 µM
TGI [5]: > 100 µM
GI50 [6]: 1.64 µM
TGI [6]: > 100 µM
GI50 [7]: 0.843 µM
TGI [7]: > 100 µM
GI50 [8]: 0.587 µM
TGI [8]: 5.16 µM
GI50 [9]: 2.48 µM
TGI [9]: > 100 µM
GI50 [10]: 3.84 µM
TGI [10]: > 100 µM
GI50 [11]: 3.1 µM
TGI [11]: > 100 µM
GI50 [12]: 0.431 µM
TGI [12]: > 85.4 µM
GI50 [13]: 0.74 µM
TGI [13]: > 100 µM
GI50 [14]: 0.525 µM
GI50 [15]: 1.78 µM
TGI [15]: > 100 µM
GI50 [16]: 1.02 µM
TGI [16]: > 28.8 µM
GI50 [17]: 2.24 µM
TGI [17]: > 100 µM
GI50 [18]: 0.349 µM
TGI [18]: > 32.9 µM
GI50 [19]: 1.82 µM
TGI [19]: > 100 µM
GI50 [20]: 0.408 µM
TGI [20]: > 100 µM
GI50 [21]: 0.452 µM
TGI [21]: > 100 µM
GI50 [22]: 0.806 µM
TGI [22]: > 100 µM
GI50 [23]: 0.419 µM
TGI [23]: > 100 µM
GI50 [24]: 51.9 µM
TGI [24]: > 100 µM
GI50 [25]: 1.3 µM
TGI [25]: > 100 µM
GI50 [26]: 1.37 µM
TGI [26]: > 100 µM
GI50 [27]: 0.875 µM
TGI [27]: > 100 µM
GI50 [28]: 42.3 µM
TGI [28]: > 100 µM
GI50 [29]: 2.13 µM
TGI [29]: > 100 µM
GI50 [30]: 0.402 µM
TGI [30]: > 100 µM
GI50 [31]: 0.225 µM
TGI [31]: 1.04 µM
GI50 [32]: 0.322 µM
TGI [32]: > 100 µM
GI50 [33]: 0.349 µM
TGI [33]: 2.35 µM
GI50 [34]: > 27.3 µM
TGI [34]: > 100 µM
GI50 [35]: 10.1 µM
TGI [35]: > 100 µM
GI50 [36]: 1.35 µM
TGI [36]: > 100 µM
GI50 [37]: 1.78 µM
TGI [37]: > 100 µM
GI50 [38]: 1.62 µM
TGI [38]: > 100 µM
GI50 [39]: 1.11 µM
TGI [39]: > 26.1 µM
GI50 [40]: 6.25 µM
TGI [40]: > 100 µM
GI50 [41]: 0.396 µM
TGI [41]: 16.8 µM
GI50 [42]: 1.45 µM
TGI [42]: 23.4 µM
GI50 [43]: 0.541 µM
TGI [43]: > 100 µM
GI50 [44]: 2.58 µM
TGI [44]: > 100 µM
GI50 [45]: 0.633 µM
TGI [45]: > 42.1 µM
GI50 [46]: 1.57 µM
TGI [46]: 21.5 µM
GI50 [47]: 5.57 µM
TGI [47]: > 100 µM
GI50 [48]: 6.42 µM
TGI [48]: > 100 µM
GI50 [49]: 0.542 µM
TGI [49]: 9.25 µM
GI50 [50]: 0.4 µM
TGI [50]: > 100 µM
GI50 [51]: 0.368 µM
TGI [51]: > 100 µM
GI50 [52]: 3.82 µM
TGI [52]: > 100 µM
GI50 [53]: 12.8 µM
TGI [53]: > 100 µM
GI50 [54]: 0.579 µM
TGI [54]: > 100 µM
GI50 [55]: 3.4 µM
TGI [55]: > 100 µM
GI50 [56]: 0.493 µM
TGI [56]: > 100 µM
GI50 [57]: 7.85 µM
TGI [57]: > 100 µM
